Legend:
TNF [1] = target: T1, TNF (Homo sapiens, UniProt P01375); assay: SPR (Biacore T200) direct binding to immobilized TNF; conditions: FIG. 2d
Method: The binding kinetics of TNF and 4-benzopyranone derivative compounds was measured by Surface Plasmon Resonance (SPR) method. First, based on the results of pH scouting (10 mM acetate buffer, pH 4.0, 4.5, 5.0, and 5.5), the appropriate buffer pH was determined, and then the recombinant TNF was immobilized on the CM5 chip (4000-5000 RU). In order to correct an effect of DMSO, a solvent correction standard was then prepared, and DMSO was added to the HBS-EP+ buffer (GE) in an amount of 5%. Then, the 4-benzopyranone derivative compounds were prepared depending on concentration, flowed into the chip (20 μl/min, 500 s), and dissolved (500 s), and the results of sensorgram were analyzed by a dedicated program to determine the affinity value (KD). At this time, the running buffer was HBS-EP+ buffer (GE), the regeneration buffer was 10 mM glycine (pH 2.5), and Biacore T200 (GE) was used as an analyzer.

biotinylated TNF = target: T2, biotinylated TNF (Homo sapiens, UniProt P01375); assay: Flow cytometry: binding of biotinylated TNF to Raw 264.7 cells; assay type: cell-based, mouse; conditions: compound 800, 200, 5 μM, FACS, FIG. 3a
T2 construct: purchased R&D Systems NFTAO
T2 sequence (P01375 77-233 limits assumed): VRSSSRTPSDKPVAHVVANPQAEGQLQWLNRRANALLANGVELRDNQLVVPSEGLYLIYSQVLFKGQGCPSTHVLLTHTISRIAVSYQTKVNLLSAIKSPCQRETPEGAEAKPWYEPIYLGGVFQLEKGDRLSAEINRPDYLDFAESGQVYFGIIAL
Method: First, macrophage Raw 264.7 cells were prepared (4×10^6 cells/ml), and the biotinylated TNF alone or in combination with the 4-benzopyranone derivative compound (800, 200, 5 μM) was added to the cells and reacted (30 min, 4° C.). 10 μl of avidin-FITC reagent was then added and reacted in the dark (30 min, 4° C.). After washing with RDF1 buffer, FACS analysis was carried out (BD Canto). Human TNF-alpha Biotinylated Fluorokine Flow Cytometry Kit (Cat #: NFTAO) of R&D Systems was used in the experiment.

TNF [2] = target: T1, TNF; assay: TNF-neutralization bioassay: TNF-induced cell death of LM cells (MTT); assay type: cell-based; conditions: for inhibition at 50 µM: compound 50 μM, TNF 20 ng/ml, actinomycin D, LM cells, 24 hours
Method: (§1) First, the addition of recombinant TNF to mouse fibroblast LM cells induces cell death, and thus, by using the same, the TNF-neutralization bioassay was constructed. In other words, LM cells were pretreated with TNF (20 ng/ml) and the compounds synthesized in the above examples at various concentrations (5×10^4 cells/well), and a sensitizer actinomycin D ([…]) was added, and cultured in a CO2 incubator for 24 hours, and then the MTT assay was carried out. At this time, 10 μl of MTT (5 mg/ml stock) was added, reacted for 4 hours, and then dissolved in DMSO to measure the absorbance at 570 nm. First, the TNF cell death inhibition/neutralization action of TNF-target expected compounds at single concentration (50 or 10 μM) was measured. Second, IC50 values were determined by treating with the compounds having an excellent effect at different concentrations. The % inhibition of TNF was calculated using the following formula: % inhibition of TNF=(OD value of a group treated with TNF and compound−OD value of TNF treated group/(OD value of TNF untreated group−OD value of TNF treated group)×100.
(§2) IC50 values were statistically analyzed using Prism 6 (GraphPad) (IC50: 50% inhibitory concentration, CC50: 50% cytotoxic concentration).

DBA/1 mice = assay: CIA mouse model, alone and in combination with methotrexate; assay type: in vivo; conditions: Example 61 10 mpk PO once a day, MTX 5 mpk three times a week, to Day 73
Source text: A 1:1 mixture of collagen type 2 and CFA was intradermally (ID) injected into the base of the tail of DBA/1 mice. Two weeks after the primary immunization, a 1:1 mixture of bovine collagen type 2 and IFA (incomplete Freund's adjuvant) was intradermally (ID) injected into the base of the tail to prepare the rheumatoid arthritis animal model. The thus prepared mice were divided into […], i.e., a positive control group (MTX 5 mpk treated group: 10 mice), a group treated with the compound of Example 61 alone (10 mpk treated group: 9 mice), a group treated with MTX and the compound of Example 61 (each 5 mpk and 10 mpk; 9 mice), and a group treated with vehicle (a group treated with 0.05% CMC diluted in distilled water; 15 mice). […]
The severity of arthritis was determined by ascertaining the mean score of arthritis according to the following standard score in the forefoot and hindfoot twice a week from Day 0 to Day 73 after the primary immunization: 0=normal foot, 1=inflammation and swelling of one toe, 2=inflammation and swelling of more than one toe, but not all of the toes have inflammation and swelling, or weak swelling of all toes, 3=inflammation and swelling of all toes, and 4=severe inflammation and swelling or occlusion of foot.

[3] = Cytotoxicity (CC50) in LM cells, MTT assay; assay type: cell-based; conditions: mouse, LM cells (mouse fibroblasts); 50% cytotoxic concentration
Method: as §1, §2

T1 sequence (P01375 77-233 limits assumed): as above

## Cc1cccc(-c2oc3ccc(Br)cc3c(=O)c2C(=O)O)c1 [Example 30, 2-(3-methylphenyl)-3-carboxy-6-bromo-(4H)-4-benzopyranone]
other
  melting point: 208 to 210 °C
TNF [1]
  binding to TNF: did not bind to TNF
Biotinylated TNF
  inhibitory activity against TNF-cell binding: did not inhibit the cell binding of TNF at all
TNF [2]
  inhibition at 50 µM: 7.4%

## CN(Cc1cnc2nc(N)nc(N)c2n1)c1ccc(C(=O)N[C@@H](CCC(=O)O)C(=O)O)cc1 [MTX, methotrexate, reference compound]
DBA/1 mice
  therapeutic effect on arthritis (mean arthritis score): therapeutic effect on arthritis was shown

## O=C(O)c1c(-c2cc(F)cc(F)c2)oc2ccc(Br)cc2c1=O [Example 51, 2-(3,5-difluorophenyl)-3-carboxy-6-bromo-(4H)-4-benzopyranone]
other
  melting point: 216 to 218 °C
[3]
  CC50 at 24 h: 13 µM
Biotinylated TNF
  inhibitory activity against TNF-cell binding: moderate inhibitory activity
TNF [2]
  inhibition at 50 µM: 100%
TNF [2]; inhibition of TNF-induced LM cell death
  IC50: 4.5 µM

Source: patent US11504349B2, “Composition for preventing or treating TNF-related diseases, containing novel derivative as active ingredient, and method for inhibiting TNF activity by using same” (ILAB, priority 2017, dated 2022)
